Experimental data reported in US10118901B2 (priority 2013, dated 2018).

Key:
NCI-60 cell lines = test: NCI-60 cell line panel screening of NL-101 (NSC#751447); assay type: cell-based, human
CCRF-CEM = test: NCI-60 screen at 10 μM: CCRF-CEM; assay type: cell-based, human; details: Leukemia CCRF-CEM; 10 μM single dose; 48 hrs
Protocol: (§1) NL-101 and CY-102 was sent to U.S. National Cancer Institute (NCI) for NCI 60-cell line screening using a single compound dose (10 μM).
(§2) The human tumor cell lines of the cancer screening panel were grown in RPMI 1640 medium containing 5% fetal bovine serum (5% FBS) and 2 mM L-glutamine. For a typical screening experiment, cells were inoculated into 96-well microtiter plates in 100 μL, at plating densities ranging from 5,000 to 40,000 cells/well depending on the doubling time of individual cell lines. After cell inoculation, the microtiter plates were incubated at 37° C., 5% CO2, 95% air, and 100% relative humidity for 24 h prior to addition of experimental compounds. […]
(§3) Following drug addition, the plates were incubated for an additional 48 hrs at 37° C., 5% CO2, 95% air, and 100% relative humidity. […] Bound stain was subsequently solubilized with 10 mM trizma base, and the absorbance was read on an automated plate reader at a wavelength of 515 nm. […]
(§4) Using the seven absorbance measurements [time zero, (Tz), control growth, (C), and test growth in the presence of drug at the 10 μM concentration levels (Ti)], percentage growth was calculated at each of the drug concentrations levels. Percentage growth inhibition was calculated as: [(Ti−Tz)/(C−Tz)]×100 for which Ti>/=Tz or [(Ti−Tz)/Tz]×100 for which Ti<Tz.

RPMI-8226 = test: NCI-60 screen at 10 μM: RPMI-8226; assay type: cell-based, human; details: Leukemia RPMI-8226; 10 μM single dose; 48 hrs
Protocol: as §1, §2, §3, §4

EKVX = test: NCI-60 screen at 10 μM: EKVX; assay type: cell-based, human; details: NSCLC EKVX; 10 μM single dose; 48 hrs
Protocol: as §1, §2, §3, §4

NCI-H522 = test: NCI-60 screen at 10 μM: NCI-H522; assay type: cell-based, human; details: NSCLC NCI-H522; 10 μM single dose; 48 hrs
Protocol: as §1, §2, §3, §4

HCC-2998 = test: NCI-60 screen at 10 μM: HCC-2998; assay type: cell-based, human; details: Colon Cancer HCC-2998; 10 μM single dose; 48 hrs
Protocol: as §1, §2, §3, §4

HT29 = test: NCI-60 screen at 10 μM: HT29; assay type: cell-based, human; details: Colon Cancer HT29; 10 μM single dose; 48 hrs
Protocol: as §1, §2, §3, §4

SF-295 = test: NCI-60 screen at 10 μM: SF-295; assay type: cell-based, human; details: CNS Cancer (Glioma) SF-295; 10 μM single dose; 48 hrs
Protocol: as §1, §2, §3, §4

SF-539 = test: NCI-60 screen at 10 μM: SF-539; assay type: cell-based, human; details: CNS Cancer (Glioma) SF-539; 10 μM single dose; 48 hrs
Protocol: as §1, §2, §3, §4

NCI/ADR-RES = test: NCI-60 screen at 10 μM: NCI/ADR-RES; assay type: cell-based, human; details: Ovarian Cancer NCI/ADR-RES; 10 μM single dose; 48 hrs
Protocol: as §1, §2, §3, §4

SN12C = test: NCI-60 screen at 10 μM: SN12C; assay type: cell-based, human; details: Renal Cancer SN12C; 10 μM single dose; 48 hrs
Protocol: as §1, §2, §3, §4

PC-3 = test: NCI-60 screen at 10 μM: PC-3; assay type: cell-based, human; details: Prostate Cancer PC-3; 10 μM single dose; 48 hrs
Protocol: as §1, §2, §3, §4

MCF7 = test: NCI-60 screen at 10 μM: MCF7; assay type: cell-based, human; details: Breast Cancer MCF7; 10 μM single dose; 48 hrs
Protocol: as §1, §2, §3, §4

MDA-MB-468 = test: NCI-60 screen at 10 μM: MDA-MB-468; assay type: cell-based, human; details: Breast Cancer MDA-MB-468; 10 μM single dose; 48 hrs
Protocol: as §1, §2, §3, §4

[1] = target: HDAC enzymes (Hela Nuclear Extract); assay type: biochemical
Water solubility = assay type: physicochemical; details: thermodynamic from solid; distilled water at room temperature, visual inspection
Protocol: To measure water solubility, to approximately 10 mg of a sample in a tube-stoppered 10 mL graduated cylinder, increasing volumes of distilled water at room temperature were added according to the steps shown in the table below:
After each addition of water to give the indicated total volume, the mixture was vortexed or sonicated for 1 min and was visually inspected for any undissolved parts of the sample. If, after a total of 10 mL of water had been added (step 5), the sample or parts of it remained undissolved, the contents of the measuring cylinder was transferred to a 100 mL measuring cylinder which was then filled up with water up to 100 mL (20 ml, 25 ml, 50 ml, 100 ml) and shaken. The approximate solubility was given in the table under that volume of added water in which complete dissolution of the sample occurred. If the substance was still apparently insoluble, further dilution was undertaken to ascertain whether the column elution or the flask solubility method should be used.

[2] = target: hERG (Human Ether-á-go-go-Related-Gene) (Homo sapiens, UniProt Q12809)
Chain of hERG (Human Ether-á-go-go-Related-Gene) (Q12809 whole entry): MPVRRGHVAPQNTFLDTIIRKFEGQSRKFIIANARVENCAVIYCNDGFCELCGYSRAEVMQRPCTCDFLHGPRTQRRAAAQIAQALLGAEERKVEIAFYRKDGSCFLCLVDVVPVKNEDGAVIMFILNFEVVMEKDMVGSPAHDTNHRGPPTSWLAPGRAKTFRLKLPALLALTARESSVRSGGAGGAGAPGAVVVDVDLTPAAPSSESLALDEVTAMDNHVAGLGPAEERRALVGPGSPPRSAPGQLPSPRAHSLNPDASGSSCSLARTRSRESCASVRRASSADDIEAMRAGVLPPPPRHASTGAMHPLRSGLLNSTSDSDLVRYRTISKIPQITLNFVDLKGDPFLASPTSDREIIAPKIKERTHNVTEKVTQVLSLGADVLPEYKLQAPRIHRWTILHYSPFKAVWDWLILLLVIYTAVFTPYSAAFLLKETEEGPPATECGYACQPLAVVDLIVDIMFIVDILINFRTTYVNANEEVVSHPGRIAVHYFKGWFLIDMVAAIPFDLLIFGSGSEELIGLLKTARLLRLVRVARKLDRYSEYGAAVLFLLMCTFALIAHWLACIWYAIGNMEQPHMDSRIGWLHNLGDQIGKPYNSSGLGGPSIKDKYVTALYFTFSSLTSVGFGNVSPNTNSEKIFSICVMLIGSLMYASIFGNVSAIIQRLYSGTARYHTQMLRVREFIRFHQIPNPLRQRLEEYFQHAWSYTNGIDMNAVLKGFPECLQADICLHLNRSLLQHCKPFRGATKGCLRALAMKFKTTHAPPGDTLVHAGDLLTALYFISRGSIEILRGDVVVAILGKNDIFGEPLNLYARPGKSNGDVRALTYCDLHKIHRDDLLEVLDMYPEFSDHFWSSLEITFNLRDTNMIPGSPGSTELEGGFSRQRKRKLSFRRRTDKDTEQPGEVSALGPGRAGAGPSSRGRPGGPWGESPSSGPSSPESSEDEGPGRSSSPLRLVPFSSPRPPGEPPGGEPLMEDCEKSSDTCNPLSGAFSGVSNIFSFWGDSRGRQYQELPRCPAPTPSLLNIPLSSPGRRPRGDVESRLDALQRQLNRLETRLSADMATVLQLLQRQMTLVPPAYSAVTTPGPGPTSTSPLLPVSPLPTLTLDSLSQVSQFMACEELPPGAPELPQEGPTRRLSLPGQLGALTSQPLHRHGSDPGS

Row | SMILES | IC50 (NCI-60 cell lines; Homo sapiens, on average, read-out: average cellular IC50 in the 60 cancer cell lines) [µM] | fold more potent than Bendamustine in the NCI-60 cell lines (NCI-60 cell lines; versus Bendamustine) | Growth % (CCRF-CEM) [%] | Growth % (RPMI-8226) [%] | Growth % (EKVX) [%] | Growth % (NCI-H522) [%] | Growth % (HCC-2998) [%] | Growth % (HT29) [%] | Growth % (SF-295) [%] | Growth % (SF-539) [%] | Growth % (NCI/ADR-RES) [%] | Growth % (SN12C) [%] | Growth % (PC-3) [%] | Growth % (MCF7) [%] | Growth % (MDA-MB-468) [%] | IC50 ([1]; Hela nuclear extract, N/A* = No HDAC activity up to highest testing concentration of 10 μM) [µM] | fold more potent than SAHA in the HDAC (nuclear extract) assay ([1]; versus SAHA) | solubility at 1 min (Water solubility) [mg/mL] | fold less cardiotoxicity compared to NL-101 (hERG assay) [2]
1 | Cn1c(CCCCCCC(=O)NO)nc2cc(N(CCCl)CCCl)ccc21 [NL-101] | ~2 | 25-100 fold | 17.16 | 49.23 | 92.48 | −5.90 | 86.98 | 37.10 | 43.95 | 23.72 | 77.80 | 17.91 | 51.40 | 37.24 | −34.68 |  |  |  | 
2 | Cn1c(CCNCc2ccc(/C=C/C(=O)NO)cc2)nc2cc(N(CCCl)CCCl)ccc21 [CY-102] |  |  |  | 2.28 |  |  | −80.55 | −50.67 | −53.87 |  | 17.78 | −1.53 | −1.86 | −15.28 | −21.52 | 0.0035 | about 10 fold | > 20 | 5-10 fold
